# Entries after “also recorded” stand apart in the source; their conditions may differ.
# Key:
# ER = details: read-out: IC50, competition with fluorescein-labeled estradiol for binding to ER; FP-based assay; cited from earlier work
# [1] = tested on: Ser137 of DARPP-32 (CK1 site); experiment: DARPP-32 phospho-Ser137 immunoblot in neostriatal slices; format: cell-based, mouse; details: for effect on basal phosphorylation of Ser137 / effect of pretreatment on the DHPG effect on Ser137 phosphorylation: U73122 10 μM 30 min, BAPTA/AM 20 μM; for effect of pretreatment on the DHPG effect on Ser137 phosphorylation: before DHPG 100 μM 2 min, L-AP3 100 μM 20 min, ZM241385 100 μM, cyclosporin A 5 μM 1 h
# Procedure: (§1) Neostriatal slices were prepared from male C57/BL6 mice (6–8 weeks old) in accordance with methods known in the art (Nishi, A. et al. 1997, J. Neurosci. 17:8147–8155). Slices were treated with a drug. After drug treatment, slices were immediately frozen in liquid nitrogen, and stored at −80° C. until assayed.
# (§2) Frozen slices were sonicated in hot homogenization buffer containing 1% SDS and 50 mM NaF, and samples were boiled for 10 minutes. SDS-PAGE sample buffer was then added and samples were boiled for 5 minutes. Samples (approximately 120 μg of total protein) were separated by SDS-PAGE (10% polyacrylamide) and then transferred to nitrocellulose. In most studies, immunoblots were first probed with anti-phospho-Ser137 DARPP-32 antibody. The blots were then stripped and probed with anti-phospho-Thr75 DARPP-32 antibody. Blots were stripped again and probed with anti-total DARPP-32 antibody. […] Chemiluminescence was detected by autoradiography and bands were quantified by analysis of scanned images using NIH IMAGE 1.52 software. Data were statistically analyzed by Student's t test in Microsoft EXCEL™ software as indicated.
# (§3) Neostriatal slices were prepared from male C57/BL6 mice (6–8 weeks old) as disclosed (22). Slices were treated with drugs as specified in the text and figure legends. After drug treatment, slices were immediately frozen in liquid nitrogen, and stored at −80° C. until assayed.
# (§4) Frozen slices were sonicated in hot homogenization buffer containing 1% SDS and 50 mM NaF, and samples were boiled for 10 min. SDS-PAGE sample buffer was then added and samples were boiled for 5 min. Samples (approximately 120 μg protein) were separated by SDS-PAGE (10% polyacrylamide) and transferred to nitrocellulose. Immunoblots were first probed with antiphospho-Ser-137 DARPP-32 antibody. The blots were stripped and probed with anti-phosphoThr-75 DARPP-32 antibody. Blots were stripped again and probed with anti-total DARPP-32 antibody. Antibody binding was detected by enhanced chemiluminescence (ECL) using X-ray film, and images were analyzed by laser scanning densitometry using NIH Image 1.52 software. Data were statistically analyzed by Student's t-test using Microsoft EXCEL™ software as indicated.
# [2] = tested on: Thr75 of DARPP-32 (Cdk5 site); experiment: DARPP-32 phospho-Thr75 immunoblot in neostriatal slices; format: cell-based, mouse; details: for effect on basal phosphorylation of Thr75 / effect of pretreatment on the DHPG effect on Thr75 phosphorylation: U73122 10 μM 30 min, BAPTA/AM 20 μM; for effect of pretreatment on the DHPG effect on Thr75 phosphorylation: before DHPG 100 μM 2 min, L-AP3 100 μM 20 min, ZM241385 100 μM, cyclosporin A 5 μM 1 h
# Procedure: as §1, §2, §3, §4
# HA-tagged CK1ε = experiment: kinase activity of HA-CK1ε immunoprecipitated from transfected N2a cells, DARPP-32 as substrate; format: cell-based; details: 30 min before DHPG 100 μM 2 min, CKI-7 100 μM, L-AP3 100 μM, U73122 10 μM, BAPTA/AM 20 μM, cyclosporin A 1 μM
# Procedure: Neuroblastoma N2a cells were cultured in DMEM containing 5% fetal bovine serum (FBS) to 50–60% confluency. Four micrograms of the expression plasmid for HA-CK1ε were transfected into N2a cells in 100 mm dishes using FuGENE™ 6. Twenty-four hours after transfection, cells were incubated in phosphate-buffered Krebs-Henseleit solution (Sigma) for 10 minutes at room temperature. Cells were then incubated with or without CKI inhibitor for 30 minutes before treating with the group I mGluR agonist (S)-3,5-DHPG (100 μM) for 2 minutes. Cells were then lysed in one ml of lysis buffer containing 1% Nonidet P-40 (NP-40), 150 mM NaCl, 0.1% SDS, 50 mM Tris (pH 8.0), 5 mM Na3VO4, 20 mM NaF, 20 mM β-glycerol-phosphate and protease inhibitors. Lysates were centrifuged at 10,000 g and supernatants were used for immunoprecipitation and kinase assay.
# For immunoprecipitation of CKI from N2a cells, lysates (1 mg of total protein) were pre-cleared with 5 μl of mouse IgG and 50 μl of protein A agarose for 30 minutes. Five μl of anti-HA antibody were added and samples were incubated for 1 hour at 4° C. Five μl of anti-mouse rabbit IgG and 50 μl of protein A agarose were then added for 45 minutes. Immuno-complexes were washed three times in lysis buffer, two times in kinase buffer (30 mM Hepes (pH 7.5), 7 mM MgCl2, 0.5 mM DTT). CKI assays were performed in a 30 μl assay volume with 2 μg of purified DARPP-32, 500 μM ATP and 5 μCi γ-^32P-ATP. Samples were incubated at 30° C. for 20 minutes, reactions were stopped by addition of SDS-sample buffer, and samples were boiled for 5 minutes. Samples were separated by SDS-PAGE (12% polyacrylamide). SDS-PAGE gels were dried and exposed to Kodak film for autoradiography. Bands were quantified by analysis using a Molecular Dynamics PhosphorImager.
# Neuroblastoma N2a cells were cultured to 50–60% confluence in DMEM containing 5% fetal bovine serum. Four μg of the expression plasmid for HA-CK1ε or myc-MM2-CK1ε was transfected into N2a cells in 100 mm dishes using FuGENE6™. Twenty-four hours after transfection, cells were incubated at room temperature in phosphate-buffered Kreb's-Henseleit solution (Sigma) for 10 min and then with or without inhibitors for 30 min before treating with (S)-3,5-DHPG, for 2 min. Cells were then lysed in 1 ml of radio-immunoprecipitation (RIPA) buffer containing 1% NP-40, 150 mM NaCl, 0.1% SDS, 50 mM Tris, pH 8.0, 5 mM Na3VO4, 20 mM NaF, 20 mM β-glycerol-phosphate and protease inhibitors. Lysates were centrifuged at 10,000 g, and supernatants were used for immunoprecipitation and kinase assay.
# For immunoprecipitation of CK1ε from N2a cells, lysates (1 mg of total protein) were precleared with 5 μl of mouse IgG (ICN) and 50 μl of protein A agarose for 30 min. Five μl (approximately 2 μg) of anti-HA or anti-myc antibody was added and samples were incubated for 1 h at 4° C. Five μl of anti-mouse rabbit IgG and 50 μl of protein A agarose were then added for 45 min. Immuno-complexes were washed 3 times in lysis buffer and 2 times in kinase buffer (30 mM Hepes, pH 7.5, 7 mM MgCl2, 0.5 mM DTT).
# (§5) CK1 assays were performed in a 30 μl assay volume with 2 μg of purified DARPP-32, 500 μM ATP and 5 μCi γ-^32P-ATP. Reactions were started by addition of the ATP. Samples were incubated at 30° C. for 10 min and reactions were stopped by addition of SDS-sample buffer and boiled for 5 min. Samples were separated by SDS-PAGE (12% polyacrylamide). SDS-PAGE gels were dried and exposed to Kodak film for autoradiography. Results were quantified using a Molecular Dynamics PHOSPHORIMAGER™. Immunoprecipitation and assay of Cdk5 were performed as disclosed (20).
# Cdk5 = Cdk5 kinase activity immunoprecipitated from neostriatal slices, histone H-1 as substrate; format: cell-based, mouse; details: for effect of pretreatment on the effect of DHPG on Cdk5 kinase activity: CKI-7 dose-dependent, U73122 10 μM, BAPTA/AM 20 μM, cyclosporin A 5 μM
# Procedure: as §1
# For Cdk5 immunoprecipitation, striatal tissue slices (approximately 150 μg total protein) were lysed using a Dounce homogenizer and 1 ml of lysis buffer (150 mM NaCl, 20 mM Tris-HCl (pH 7.4), 1 mM EDTA, 0.5% NP-40, 5 mM NaF, 5 mM Na3PO4 and protease inhibitors). Lysates were centrifuged at 10,000 g for 10 minutes at 4° C. Supernatants were pre-cleared by adding rabbit IgG-conjugated agarose for 40 minutes at 4° C. Ten μl of Cdk5 antibody conjugated to agarose were added and samples were incubated for 1 hour at 4° C. with mixing. Agarose pellets were collected and washed three times with 1 ml of lysis buffer and two times with kinase assay buffer (50 mM Hepes (pH 7.5), 10 mM MgCl2, 1 mM DTT). Cdk5 kinase assays were performed in a 30-μl reaction mixtures with 2 μg Histone H-1, 500 μM ATP and 5 μCi of γ-^32P-ATP. Samples were incubated at 30° C. for 10 minutes, reactions were stopped by addition of SDS-sample buffer, and samples were boiled for 5 minutes. Samples were separated by SDS-PAGE and analyzed as disclosed above for CKI assays. Data were analyzed by Student's t-test in Microsoft Excel software as indicated, with significance defined as p<0.05.
# as §5
# [3] = tested on: voltage-dependent Ca2+ channels; experiment: whole-cell recordings of voltage-dependent Ca2+ channels in dissociated neostriatal neurons; format: cell-based, mouse; details: CK1–7 100 μM, butyrolactone 25 μM (FIG. 6)
# Procedure: Neostriatal neurons from 3- to 4-week-old mice were acutely dissociated by using procedures similar to those disclosed in Eberwine et al. (1995, Prog. Brain Res. 105:117–126). Whole-cell current recordings used standard voltage-clamp techniques. The internal solution consisted of 180 mM N-methyl-D-glucamine, 40 mM Hepes, 4 mM MgCl2, 0.5 mM 1,2-bis(2-aminophenoxy)ethane-N,N,N′,N′-tetraacetate, 12 mM phosphocreatine, 2 mM Na2ATP, 0.2 mM Na3GTP, 0.1 mM leupeptin (pH 7.2–7.3), 265–270 mosm/liter. The external solution consisted of 135 mM NaCl, 20 mM CsCl, 1 mM MgCl2, 10 mM Hepes, 0.001 mM tetrodotoxin, 5 mM BaCl2, 10 mM glucose (pH 7.3), 300–305 mosm/liter. Recordings were obtained with an Axon Instruments 200B patch clamp amplifier that was controlled and monitored with an IBM PC running PCLAMP™ (v. 8) with a DigiData 1320 series interface (Axon Instruments, Foster City, Calif.). Electrode resistances were typically 2–4 MΩ in the bath. After seal rupture, series resistance (4–10 MΩ) was compensated (70–90%) and periodically monitored. Drugs were applied with a gravity-fed “sewer pipe” system. The array of application capillaries was positioned 250 μm from the cell under study. Solution changes were effected by altering the position of the array with a DC drive system controlled by a microprocessor-based controller (Newport-Klinger, Irvine, Calif.). Data analyses were performed with AXOGRAPH™ (Axon Instruments), […]™ (Albeck Software, Reading, Pa.), and […]™ (Abacus Concepts, Berkeley, Calif.).
# [4] = slices treated with drug alone: DHPG 100 μM, ionomycin 2 μM
# [5] = 1 μM butyrolactone, 30 min before DHPG 2 min
# [6] = butyrolactone 5 μM and 10 μM, 30 min before DHPG 2 min
molecule,measurement,setting,value
4-OH-tamoxifen,IC50,ER,0.026 µM
COc1ccc2c(c1)CC[C@@H]1[C@@H]2CC[C@]2(C)[C@@H](NCCCCCCN3C(=O)C=CC3=O)CC[C@@H]12 [U73122],effect on basal phosphorylation of Ser137,[1],did not change
same,effect of pretreatment on the DHPG effect on Ser137 phosphorylation,[1],abolished
same,effect on basal phosphorylation of Thr75,[2],did not change
same,effect of pretreatment on the DHPG effect on Thr75 phosphorylation,[2],abolished
same,effect of pre-incubation on the ability of DHPG to increase CK1ε activity,HA-tagged CK1ε,abolished
same,effect of pretreatment on the effect of DHPG on Cdk5 kinase activity,Cdk5,abolished
Nc1nc(NCCc2ccc(O)cc2)nc2nc(-c3ccco3)nn12 [ZM241385],effect of pretreatment on the DHPG effect on Ser137 phosphorylation,[1],did not affect
same,effect of pretreatment on the DHPG effect on Thr75 phosphorylation,[2],did not affect
N[C@@H](CP(=O)(O)O)C(=O)O [L-AP3],effect of pretreatment on the DHPG effect on Ser137 phosphorylation,[1],blocked
same,effect of pretreatment on the DHPG effect on Thr75 phosphorylation,[2],blocked
same,effect of pre-incubation on the ability of DHPG to increase CK1ε activity,HA-tagged CK1ε,blocked
17β-estradiol,IC50,ER,0.0056 µM
C[C@H](CCC(=O)O)C[C@H](C)C[C@H](C)C(=O)/C=C(\O)[C@H](C)C[C@H](C)C/C=C/[C@@H](C)[C@@H](O)[C@@H](C)[C@@H](O)C[C@@H]1CC[C@@](C)([C@H]2CC[C@@](C)([C@@H](C)O)O2)O1 [ionomycin],effect on phosphorylation of Ser137 in DARPP-32,[1]; [4],increased phosphorylation
same,effect on phosphorylation of Thr75 in DARPP-32,[2]; [4],increased phosphorylation
same,increase in Cdk5 kinase activity,Cdk5; ionomycin 2 μM for 2 min,2 fold
CC(=O)OCOC(=O)CN(CC(=O)OCOC(C)=O)c1ccccc1OCCOc1ccccc1N(CC(=O)OCOC(C)=O)CC(=O)OCOC(C)=O [BAPTA/AM],effect on basal phosphorylation of Ser137,[1],did not change
same,effect of pretreatment on the DHPG effect on Ser137 phosphorylation,[1],abolished
same,effect on basal phosphorylation of Thr75,[2],did not change
same,effect of pretreatment on the DHPG effect on Thr75 phosphorylation,[2],abolished
same,effect of pre-incubation on the ability of DHPG to increase CK1ε activity,HA-tagged CK1ε,abolished
same,effect of pretreatment on the effect of DHPG on Cdk5 kinase activity,Cdk5,abolished
O=C1CCCO1 [butyrolactone],effect on basal or DHPG-stimulated DARPP-32 phosphorylation at Ser137,[1]; [5],little effect
same,effect on basal and DHPG-stimulated phosphorylation of Ser137,[1]; [6],unaffected
same,effect on basal or DHPG-stimulated DARPP-32 phosphorylation at Thr75,[2]; [5],little effect
same,effect on basal and DHPG-stimulated phosphorylation of Thr75,[2]; [6],decreased in a dose-dependent manner
same,effect on basal Ca2+ currents,[3],significant reduction; also recorded: reduced
same,effect on the enhancement of Ca2+ currents by DHPG,[3]; DHPG 100 μM,eliminated

# From patent US7129073B2, “Regulation of neuronal function through metabotropic glutamate receptor signaling pathways” (The Rockefeller University, priority 2001, dated 2006)
